≈ marks a conversion by molar mass, not a printed value. A value given as a limit tells only on which side of the number the result lay.

The text below walks through data of patent publication US5646164A, “α-methylene-γ-butyrolactones: new inhibitors of platelet aggregation” (National Science Council, priority 1995, dated 1997).

Holding throughout (assay type): cell-based
For test [1], the system named is platelet aggregation induced by arachidonic acid (AA) in washed rabbit platelets. The test is described as follows: Inhibition of arachidonic acid-induced aggregation of washed rabbit platelets (turbidimetry, Lumi-aggregometer). As to conditions: Oryctolagus cuniculus; for activity at 100 µg/mL: 0.05 h, AA 100 μM, compound 100 μg/ml, preincubated at 37° for 3 min, mean ± SEM (n); for IC50: AA 100 μg/ml. Here is the method: (§1) The pharmacological activity of these compounds were determined according to G.V.R. Born by turbidimetry (J. Physiol., 1963, 168, 178). Based on the method, samples were suspended in rabbit platelets which were washed with platelet-rich plasma, the aggregation was then counted by the Lumi-aggregometer (Model 1020, Paytoon, Canada). Formula (I-III) at the concentration of 100 μg/ml are found to inhibit the platelet aggregation perfectly which was induced by arachidonic acid (AA), collagen, ADP, and PAF. Since the structures of these compounds are different from those of known antiplatelet agents, the present invention have the potential for further development.
4. AA (arachidonic acid), purchased from Sigma, was dissolved in deionized water.
(§2) Platelet suspension was prepared from EDTA-anticoagulated Platelet-rich plasma according to washing procedures described previously (Teng, C. M. et. al., Thromb Haemost 59, 304, 1991). Platelets were counted by Hemalaser 2 (Sebia, France) and adjusted to a concentration of 4.5×10^8 platelets/mL. Platelet pellets were finally suspended in Tyrode's buffer (pH 7.4) of the following composition: NaCl (136.8 mM), KCl (2.8 mM), NaHCO3 (11.9 mM), MgCl2 (2.1 mM), NaH2 PO4 (0.33 mM), CaCl2 (1 mM), glucose (11.2 mM) containing 0.35% bovine serum albumin.
(§3) Aggregation was measured by the turbidimetry method as described by O'Brien (J Clin Pathol 15, 452, 1962). ATP released from platelets was detected by the bioluminescence method of DeLuca and McElory (Methods Enzymol 57, 3, 1978). Both aggregation and ATP release were measured simultaneously in a Lumi-aggregometer (model 1020B, Payton, Canada) connected to two dt/al-channel recorders. Platelet preparations were stirred at 900 rpm. When DMSO was used as solvent, its final concentration was fixed at 0.5% (v/v) to eliminate the effect of the solvent. For the calculation of percentage aggregation, the absorbance of platelet suspension was designated as 0% aggregation and the absorbance of platelet-free Tyrode's solution as 100% aggregation. The antiplatelet effects were shown in Table 1 and the inhibitory concentrations for 50% aggregation (IC50) were expressed in Table 2.

For test [2], the system named is platelet aggregation induced by collagen (Col) in washed rabbit platelets. Put plainly: Inhibition of collagen-induced aggregation of washed rabbit platelets (turbidimetry, Lumi-aggregometer). As to conditions: Oryctolagus cuniculus, Col 10 μg/ml; for activity at 100 µg/mL: 0.05 h, compound 100 μg/ml, preincubated at 37° for 3 min, mean ± SEM (n). Here is the method: as §1
2. Collagen (type I: bovine Achilles tendon), from the Sigma Chemical Co., was homogenized in 25 mM acetic acid and stored (1 mg/mL) at -70° C.
as §2, §3

The test system of test [3] is platelet aggregation induced by thrombin (Thr) in washed rabbit platelets. The test is described as follows: Inhibition of thrombin-induced aggregation of washed rabbit platelets (turbidimetry, Lumi-aggregometer). As to conditions: Oryctolagus cuniculus, Thr 0.1 U/ml; for activity at 100 µg/mL: 0.05 h, compound 100 μg/ml, preincubated at 37° for 3 min, mean ± SEM (n). The method, then:
as §1
1. Bovine thrombin, from the Parke Davis Co., was dissolved in 50% (v/v) glycerol for a stock solution of 100 NIH units/mL.
as §2, §3

In test [4] the test system is platelet aggregation induced by platelet-activating factor (PAF) in washed rabbit platelets. The test is described as follows: Inhibition of PAF-induced aggregation of washed rabbit platelets (turbidimetry, Lumi-aggregometer). As to conditions: Oryctolagus cuniculus, PAF 2 nM. The method, then: as §1
3. PAF (1-O-alkyl-2-acetyl-sn-glycerol-3-phosphorylcholine), purchased from Sigma, was dissolved in chloroform and diluted into 0.1% BSA-saline solution immediately prior to use.
as §2, §3

A word on the IC50: it is the midpoint of a concentration-inhibition curve. High values mean lower potency, low ones higher potency. In the case of `C=C1CC(C)(COc2cc(=O)oc3ccccc23)OC1=O` (stereo not shown) [Compound 1, 4-[(2,3,4,5-Tetrahydro-2-methyl-4-methylene-5-oxo-2-furanyl)methoxy]-2H-1-benzopyran-2-one], the activity at 100 µg/mL in test [1] is 23.3 ± 12.6%; in test [2], 8.5 ± 6.9%; in test [3], 74.4 ± 9.6%. Besides, the IC50 in test [1], in test [2], in test [3] and in test [4] was more than 50 µg/mL each time.

Turning to `C=C1CC(COc2cc(=O)oc3ccccc23)(c2ccccc2)OC1=O` (stereo not shown) [Compound 2, 4-[(2,3,4,5-Tetrahydro-4-methylene-5-oxo-2-phenyl-2-furanyl)methoxy]-2H-1-benzopyran-2-one], the activity at 100 µg/mL in test [1], in test [2] and in test [3] was 0% throughout. For the same compound, the half-maximal inhibitory concentration (IC50) was 2.86 µg/mL (≈ 8.21 µM) in test [1] and 36 µg/mL (≈ 103 µM) in test [4].

On to `C=C1CC(C)(COc2ccc3ccc(=O)oc3c2)OC1=O` (stereo not shown) [Compound 3, 7-[(2,3,4,5-Tetrahydro-2-methyl-4-methylene-5-oxo-2-furanyl)methoxy]-2H-1-benzopyran-2-one], for which the activity at 100 µg/mL was 0% in test [1], 0% in test [2] and 22.8 ± 6.6% in test [3]. For the same compound, the values for the half-maximal inhibitory concentration (IC50) in test [1], in test [3] and in test [4] were 26.1 µg/mL (≈ 91.1 µM), more than 50 µg/mL and more than 50 µg/mL, respectively.

For the compound `C=C1CC(COc2ccc3ccc(=O)oc3c2)(c2ccccc2)OC1=O` (stereo not shown) [Compound 4, 7-[(2,3,4,5-Tetrahydro-4-methylene-5-oxo-2-Phenyl-2-furanyl)methoxy]-2H-1-benzopyran-2-one], the activity at 100 µg/mL in test [1], in test [2] and in test [3] was 0% throughout. Further, the IC50 in test [1] amounted to 1.27 µg/mL (≈ 3.65 µM); in test [4], 5.7 µg/mL (≈ 16.4 µM).

On to `C=C1CC(C)(COc2cccc3ccc(=O)[nH]c23)OC1=O` (stereo not shown) [Compound 5, 8-[(2,3,4,5-Tetrahydro-2-methyl-4-methylene-5-oxo-2-furanyl)methoxy]-2(1H)-quinolinone], for which the activity at 100 µg/mL in test [1] turned out to be 0%; in test [2] it was 0%; in test [3] it was 25.9 ± 0.7%. For the same compound, half-maximal inhibition in test [1] (IC50) was put at 10.5 µg/mL (≈ 36.9 µM).

As for `C=C1CC(COc2cccc3ccc(=O)[nH]c23)(c2ccccc2)OC1=O` (stereo not shown) [Compound 6, 8-[(2,3,4,5-Tetrahydro-4-methylene-5-oxo-2-phenyl-2-furanyl)methoxy]-2(1H)-quinolinone], the activity at 100 µg/mL in test [1] stood at 0%; in test [2], 0%; in test [3], 54.3 ± 1.3%. Further, the 50% inhibitory concentration (IC50) in test [1] was 8.3 µg/mL (≈ 23.9 µM); in test [3] it was more than 50 µg/mL; in test [4], more than 50 µg/mL.

For `C=C1CC(C)(COc2cccc3cccnc23)OC1=O` (stereo not shown) [Compound 7, 8-[(2,3,4,5-Tetrahydro-2-methyl-4-methylene-5-oxo-2-furanyl)methoxy]quinoline], the activity at 100 µg/mL in test [1] was 0%; in test [2], 0%; in test [3], 17.4 ± 7.9%. For the same compound, the concentration for half-maximal inhibition (IC50) in test [2] is 27.2 µg/mL (≈ 101 µM); in test [3] it was more than 50 µg/mL; in test [4], 47.9 µg/mL (≈ 178 µM).

Take `C=C1CC(COc2cccc3cccnc23)(c2ccccc2)OC1=O` (stereo not shown) [Compound 8, 8-[(2,3,4,5-Tetrahydro-4-methylene-5-oxo-2-phenyl-2-furanyl)methoxy]quinoline]: the activity at 100 µg/mL in test [1], in test [2] and in test [3] was 0% each time. The IC50 in test [2] amounted to 4.76 µg/mL (≈ 14.4 µM); in test [3], 15.8 µg/mL (≈ 47.6 µM); in test [4], 11.1 µg/mL (≈ 33.6 µM).

For `C=C1CC(COc2cccc3cccnc23)(c2ccc(Cl)cc2)OC1=O` (stereo not shown) [Compound 9, 8-[(2-(p-Chlorophenyl)-2,3,4,5-tetrahydro-4-methylene-5-oxo-2-furanyl)methoxy]quinoline], the activity at 100 µg/mL in test [1], in test [2] and in test [3] was 0% each time. In addition, the IC50 in test [2] was 5.17 µg/mL (≈ 14.1 µM); in test [3], 13.7 µg/mL (≈ 37.4 µM); in test [4] it was 12.4 µg/mL (≈ 33.8 µM).

With `C=C1CC(C)(COc2cccc3ccc(C)nc23)OC1=O` (stereo not shown) [Compound 10, 8-[(2,3,4,5-Tetrahydro-2-methyl-4-methylene-5-oxo-2-furanyl)methoxy]-2-methylquinoline], the activity at 100 µg/mL in test [1], in test [2] and in test [3] was 0% in each case. Further, the half-maximal inhibitory concentration (IC50) in test [2] is 16.2 µg/mL (≈ 57.3 µM); in test [3] it was more than 50 µg/mL; in test [4], 39.6 µg/mL (≈ 140 µM).

In the case of `C=C1CC(COc2cccc3ccc(C)nc23)(c2ccccc2)OC1=O` (stereo not shown) [Compound 11, 8-[(2,3,4,5-Tetrahydro-4-methylene-5-oxo-2-phenyl-2-furanyl)methoxy]-2-methylquinoline], the activity at 100 µg/mL in test [1], in test [2] and in test [3] was 0% in each case. Moreover, the IC50 worked out at 5.76 µg/mL (≈ 16.7 µM) in test [2], 14.9 µg/mL (≈ 43.1 µM) in test [3] and 10.5 µg/mL (≈ 30.5 µM) in test [4].

Consider `C=C1CC(COc2cccc3ccc(C)nc23)(c2ccc(Cl)cc2)OC1=O` (stereo not shown) [Compound 12, 8-[(2-(p-Chlorophenyl)-2,3,4,5-tetrahydro-4-methylene-5-oxo-2-furanyl)methoxy]-2-methylquinoline], for which the activity at 100 µg/mL in test [1], in test [2] and in test [3] was 0% throughout. In test [4], this compound yielded an IC50 of 10.8 µg/mL (≈ 28.5 µM).
